Results from patent publication US20080199503A1, “Pharmaceutical Compositions Preparation of Peptides, Secreted by the Snake Venom Glands, Particularly of Bothrops Jararaca, Vasopeptidases Inhibitors, Evasins, Their Analogues, Derivatives and Products Associated, Thereof, for Development of Applications and Use in Chronic-Degenerative Diseases” (priority 2002, published 2008).
Read-outs that look alike come from different tables or passages of the source. Square brackets hold non-standard residues; d marks the D form. Peptide text beside a SMILES is read from it. pGlu = O=C1CC[C@@H](C(=O)O)N1

Experiments:
[1] = in vivo; cited from earlier work
[2] = system: non anesthetized hypertensive rat blood pressure; assay: Blood pressure of non anesthetized hypertensive rat, i.v. bolus of Evasin; assay type: in vivo; conditions: 70 nmol/100 g of body weight, non-anesthetized hypertensive rats
Source text: (§1) One day before the assay, the animals were subjected to a surgery for cannulation of the femoral artery and vein. The rats were anesthetized with ether and placed in dorsal decubitus on a surgical board. A small skin incision was made, thus separating the musculature for locating the femoral vasculonervous bunch. […] After insertion, the cannulas were tied to the bunch using a surgical line. Next, the cannulas were directed subcutaneously with the aid of a trocater to the scapular waist where they were exteriorized and secured using a suture line. The arterial cannula was used for recording the cardiovascular parameters and the venous cannula for administering the drugs.
(§2) The blood pressure and the heart rate were recorded one day after the femoral artery and vein cannulation. The assay was conducted with non-anesthetized animals with free movement. The rats pulsed arterial pressure (PAP), the mean arterial pressure (MAP) and heart rate (HR) were monitored by a computer, using a data acquisition system (BIOPAC). The data were collected during all the experiments.
Before the drug administration, the rats PBP, MBP and HR were monitored. After the bolus injection of Evasin in a total volume of 0.2 mL (NaCl 0.9% solution), the resulting hypotensive effect and the effect length were monitored. In this assay, standard doses of each peptide (70 nmol/100 g of body weight) were tested (n=4). […] Evasin-5a and the Evasin-7a produced a maximum MBP reduction of −19.17±4.36 mmHg and 13.00±2.78 mmHg respectively.

[3] = target: neutral endopeptidase (recombinant NEP) (Homo sapiens, UniProt P08473); assay: Fluorometric assay of recombinant NEP inhibition; assay type: biochemical
Sequence of neutral endopeptidase (recombinant NEP) (P08473 whole entry, species assumed): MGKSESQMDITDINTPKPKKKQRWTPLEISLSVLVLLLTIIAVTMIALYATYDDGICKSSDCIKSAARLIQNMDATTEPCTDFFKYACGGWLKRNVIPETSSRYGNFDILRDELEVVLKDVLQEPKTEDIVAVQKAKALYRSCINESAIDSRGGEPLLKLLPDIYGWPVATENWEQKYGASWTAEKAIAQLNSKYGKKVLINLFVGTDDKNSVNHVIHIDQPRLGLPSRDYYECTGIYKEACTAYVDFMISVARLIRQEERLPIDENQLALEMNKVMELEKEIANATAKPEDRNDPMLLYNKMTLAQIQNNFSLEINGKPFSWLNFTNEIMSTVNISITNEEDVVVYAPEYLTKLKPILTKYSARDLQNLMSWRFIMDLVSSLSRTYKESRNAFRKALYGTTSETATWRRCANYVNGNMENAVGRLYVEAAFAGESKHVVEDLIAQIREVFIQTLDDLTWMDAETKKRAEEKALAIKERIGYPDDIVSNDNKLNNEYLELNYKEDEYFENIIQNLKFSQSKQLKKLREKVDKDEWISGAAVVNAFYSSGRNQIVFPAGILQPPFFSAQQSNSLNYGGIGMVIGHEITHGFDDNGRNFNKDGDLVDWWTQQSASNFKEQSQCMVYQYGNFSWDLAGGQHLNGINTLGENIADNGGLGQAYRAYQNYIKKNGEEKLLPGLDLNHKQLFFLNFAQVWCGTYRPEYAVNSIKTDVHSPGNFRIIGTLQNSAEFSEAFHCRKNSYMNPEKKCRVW
Experimental: The fluorometric assays for the recombinant NEP inhibition were conducted using the substrate Abz-RL-EDDnp in a 50 mM Tris-HCl buffer, pH 7.5, at 37° C. […] The Evasins were pre-incubated with the enzyme before the substrate addition.
The inhibition constants (Ki) values were determined by means of the ratio of the apparent inhibition constant (Ki(app)) and the substrate Km (Salvesen and Nagase, 1990). In: Proteolytic enzymes a practical aproach, Beynon and Bond Eds Oxford University Press, England, 87-88).

[4] = target: C-terminal catalytic site of the Angiotensin I converting enzyme (recombinant ACE) (Homo sapiens, UniProt P12821); assay: Inhibition of the C-terminal catalytic site of recombinant ACE (fluorogenic substrate); assay type: biochemical
Sequence of C-terminal catalytic site of the Angiotensin I converting enzyme (recombinant ACE) (P12821 643-1222 limits assumed, species assumed): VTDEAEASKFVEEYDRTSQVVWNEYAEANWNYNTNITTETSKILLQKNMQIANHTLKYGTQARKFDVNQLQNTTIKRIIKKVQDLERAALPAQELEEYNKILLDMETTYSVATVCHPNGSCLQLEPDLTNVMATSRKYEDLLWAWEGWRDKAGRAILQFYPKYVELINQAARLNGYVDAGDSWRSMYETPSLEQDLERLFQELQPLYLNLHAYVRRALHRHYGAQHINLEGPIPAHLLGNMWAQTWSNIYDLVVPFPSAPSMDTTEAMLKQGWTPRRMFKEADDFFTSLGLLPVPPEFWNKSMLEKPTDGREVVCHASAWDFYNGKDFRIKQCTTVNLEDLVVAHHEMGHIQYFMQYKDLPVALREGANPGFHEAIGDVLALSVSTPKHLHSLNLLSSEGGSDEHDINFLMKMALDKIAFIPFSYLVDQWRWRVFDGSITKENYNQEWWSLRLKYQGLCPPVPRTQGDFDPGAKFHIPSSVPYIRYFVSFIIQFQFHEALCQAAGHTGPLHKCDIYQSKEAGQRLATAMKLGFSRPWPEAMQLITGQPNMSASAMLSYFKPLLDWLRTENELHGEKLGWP
Experimental: (§3) The fractions from purification were submitted to mass spectrometry analysis to conforming the Evasins molar mass after purification. • The enzyme assays for the recombinant ACE inhibition were conducted using the substrate Mca-Ala-Ser-Asp-Lys-DpaOH, at 25° C., in a 50 mM Hepes buffer (pH 6.8), 200 mM NaCl and […] ZnCl2.

[5] = target: N-terminal catalytic site of the Angiotensin I converting enzyme (recombinant ACE) (Homo sapiens, UniProt P12821); assay: Inhibition of the N-terminal catalytic site of recombinant ACE (fluorogenic substrate); assay type: biochemical
Sequence of N-terminal catalytic site of the Angiotensin I converting enzyme (recombinant ACE) (P12821 40-624 limits assumed, species assumed): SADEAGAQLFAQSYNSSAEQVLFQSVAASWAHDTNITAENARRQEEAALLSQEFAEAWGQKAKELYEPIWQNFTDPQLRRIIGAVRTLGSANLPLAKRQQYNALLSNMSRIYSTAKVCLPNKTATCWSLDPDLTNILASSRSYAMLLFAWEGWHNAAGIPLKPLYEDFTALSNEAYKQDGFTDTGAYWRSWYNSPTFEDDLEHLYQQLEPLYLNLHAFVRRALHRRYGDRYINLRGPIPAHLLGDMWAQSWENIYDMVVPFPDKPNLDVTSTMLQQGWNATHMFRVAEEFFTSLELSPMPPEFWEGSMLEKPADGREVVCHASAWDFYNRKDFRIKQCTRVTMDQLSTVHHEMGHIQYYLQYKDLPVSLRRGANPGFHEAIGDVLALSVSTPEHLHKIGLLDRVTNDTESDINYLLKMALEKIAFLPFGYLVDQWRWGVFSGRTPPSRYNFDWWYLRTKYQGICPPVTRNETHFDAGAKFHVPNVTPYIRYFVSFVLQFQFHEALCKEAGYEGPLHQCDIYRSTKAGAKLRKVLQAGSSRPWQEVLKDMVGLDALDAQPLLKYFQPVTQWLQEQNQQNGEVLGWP
Experimental: as §3

[6] = system: SHR and TGR(mREN2)L27 hypertensive rats blood pressure; assay: Infusion of Evasin 5a in awake hypertensive rats of different strain; assay type: in vivo, rat; conditions: for decrease of the MAP: infusion 900 μg/100 g corporal weight/hour
Source text: as §1, with “line.” for “line. The arterial cannula was used for recording the cardiovascular parameters and the venous cannula for administering the drugs.”
as §2, with “animals” for “rats”
Before the drug administration, the rats PBP, MBP and HR were monitored during 60 minutes. During and after the infusion of the Evasin 5a, 900 μg/100 g corporal weight/hour in NaCl solution 0.9% (n=6), the cardiovascular parameters were registered. The administration of the evasin-5a in both strains produced the same decreased of the MAP 28±2.7 mmHg and 34±0.9 mmHg in the SHR and TGR (mREN2) L27 respectively. However, it was observed that the relevant difference in time duration effect after the infusion interruption was over 6 hours in the SHR and only 1 hour in the TGRs. These differences indicate important variations of the biochemical mechanisms of the Evasins 5a action with different degree for the renin angiotensin system activation.

[7] = system: awake hypertensive rat blood pressure; assay: Blood pressure of awake hypertensive rat, free versus cyclodextrin-encapsulated Evasin; assay type: in vivo; conditions: bolus injection, 0.071 nmol/100 g of body weight, awake hypertensive rats
Source text: as §1, with “This example describes the inclusion compound administration effect between the Evasin-5a and hydroxiprolil-[…]-cyclodextrina BPβCD) on the blood pressure of the hypertensive rats. One” for “One”, “line.” for “line. The arterial cannula was used for recording the cardiovascular parameters and the venous cannula for administering the drugs.”
as §2, with “animals” for “rats”
Before the drug administration, the rats PBP, MBP and HR were monitored during 60 minutes. After the bolus injection of Evasin in a total volume of 0.2 mL (NaCl 0.9% solution), the resulting hypotensive effect and the effect length were monitored. […]

[8] = system: anesthetized normotensive rats (WKY) blood pressure; assay: Potentiation of the bradykinin hypotensive effect on anesthetized rat blood pressure; assay type: in vivo; conditions: for Bk potentiation(%): hypotension increase of a single bradykinin dose after 200 nmol of potentiator i.v., anesthetized rats; for Duration time: time to reduce the potentiating effect by 50%, 200 nmol/rat i.v., unit not given, minutes
Experimental: The potentiating activity of the bradykinin hypotensive effect was tested in anesthetized rats. Normotensive male rats (WKY) were anesthetized using pentobarbital sodium (Hypnol® Cristália, 50 mg/kg, intraperitoneal) and placed on a controlled-temperature board for maintaining the body temperature between 36.5° C. and 37° C. A polygraph coupled to a physiological transducer was used. The blood pressure ranging values were obtained by integrating the areas limited by the baseline pressure and comparing them to the values obtained from control assays. In in vivo assays, the potentiating activity of Evasins on the hypotensive effect of bradykinin on anesthetized rat blood pressure was observed. Two parameters were determined for comparison of the potentiating effects of bradykinin on the anesthetized rat blood pressure (n=5):
1) Intensity of the potentiating effect of the hypotensive activity of bradykinin on the anesthetized rats blood pressure: This value was defined as the hypotension percentage (%) increase caused by a single dose of bradykinin obtained after the infusion of 200 nmol of potentiator. 2) Potentiating effect length: Time required to reduce the potentiating effect on a single dose of bradykinin by 50%.

[9] = cited from earlier work
[10] = system: rostro-ventrolateral medulla of freely moving rats; conditions: free (not encapsulated), 25 to 50 ng; cited from earlier work
[11] = recombinant NEP, substrate Abz-RL-EDDnp, pH 7.5, 37° C., read-out: NEP - Ki
[12] = recombinant ACE, substrate Mca-Ala-Ser-Asp-Lys-DpaOH, 25° C., pH 6.8, read-out: ECA - Ki, C-terminal
[13] = recombinant ACE, substrate Mca-Ala-Ser-Asp-Lys-DpaOH, 25° C., pH 6.8, read-out: ECA - Ki, N-terminal

Row | Compound | hypotensive effect length [2] | reduction in the mean blood pressure (maximum) [2] [mmHg] | Ki [3, 11] [µM] | Ki [4, 12] [µM] | Ki [5, 13] [µM] | Bk potentiation(%) [8] [%] | Duration time [8] | also measured
1 | C[C@H](CS)C(=O)N1CCC[C@H]1C(=O)O [Captopril] | – | – | – | – | – | – | – | drug absorption time when administered alone [1]: 1 h
2 | C[C@H](NC(=O)[C@H](Cc1c[nH]c2ccccc12)NC(=O)[C@H](CCCCN)NC(=O)[C@@H]1CCC(=O)N1)C(=O)N1CCC[C@H]1C(=O)O [EVASIN-5a, <EKWAP] ([pGlu]KWAP-OH; C-terminus assumed) | 37 min | −19.17±4.36 | 550 | 1.28 | 0.399 | 102.5 | 10 | time duration of effect after the infusion interruption ([6]; SHR): over 6 hours; decrease of the MAP ([6]; SHR): 28±2.7 mmHg; decrease of the MAP ([6]; TGR (mREN2) L27): 34±0.9 mmHg; time duration of effect after the infusion interruption ([6]; TGRs): 1 h; effect length [7]: 38 min; maximum hypotensive effect, reduction of MAP [7]: 23±4.2 mmHg
3 | CC[C@H](C)[C@H](NC(=O)[C@@H]1CCCN1C(=O)CNC(=O)[C@H](CC(=O)O)NC(=O)[C@@H]1CCC(=O)N1)C(=O)N1CCC[C@H]1C(=O)N1CCC[C@H]1C(=O)O [EVASIN-7a, <EDGPIPP] ([pGlu]DGPIPP-OH; C-terminus assumed) | more than 100 minutes | 13.00±2.78 | 492 | 40 | 70 | 41.8 | 120 | –
4 | CC[C@H](C)[C@H](NC(=O)[C@H](CCC(N)=O)NC(=O)[C@@H]1CCCN1C(=O)[C@H](CCCNC(=N)N)NC(=O)[C@@H]1CCCN1C(=O)[C@H](Cc1c[nH]c2ccccc12)NC(=O)[C@@H]1CCC(=O)N1)C(=O)N1CCC[C@H]1C(=O)N1CCC[C@H]1C(=O)O [EVASIN-9a, <EWPRPQIPP] | 84 min | −27.0±1.50 | 86 | 0.001 | 0.1 | – | – | antihypertensive activity, intravenously ([9]; administered intravenously): has an antihypertensive activity; antihypertensive activity, orally ([9]; given orally): inactive
5 | CC[C@H](C)[C@H](NC(=O)[C@H](CCC(N)=O)NC(=O)[C@@H]1CCCN1C(=O)[C@H](Cc1c[nH]cn1)NC(=O)[C@@H]1CCCN1C(=O)[C@H](Cc1c[nH]c2ccccc12)NC(=O)[C@H](CC(N)=O)NC(=O)[C@@H]1CCC(=O)N1)C(=O)N1CCC[C@H]1C(=O)N1CCC[C@H]1C(=O)O [EVASIN-10c, <ENWPHPQIPP] ([pGlu]NWPHPQIPP-OH; C-terminus assumed) | 94 min | −29.5±9.50 | – | – | – | 195 | 95 | Ki [3]: 253 µM; Ki [4]: 0.0005 µM; selectivity for the C-terminal site ([4]; C-terminal versus N-terminal site of ACE): 400 times; Ki [5]: 0.2 µM
6 | Ang-(1-7) (DRVYIHP; Angiotensin 1-7; UniProt P01019 25-31, looked up) [free Ang-(1-7), angiotensinergic peptide, not encapsulated] | – | – | – | – | – | – | – | duration of the increase [10]: approximately 10 min; increase of blood pressure [10]: 15 mmHg
